{
  "source": "patent US12527270B2",
  "about": "“Promoting regeneration and transformation in plants” (KWS SAAT SE & CO. KGAA, priority 2020, dated 2026)",
  "test_system": "Beta vulgaris calli",
  "assay": "DEX-inducible 35S-BnBBM-GR: shoot formation and callus-based transformation efficiency",
  "assay_type": "cell-based, Beta vulgaris (sugar beet)",
  "conditions": "BnBBM-GR with DEX-induction",
  "method": "By applying the following method callus for Beta vulgaris (sugar beet) has been induced: Micropropagated shoots were used as starting material. Shoots were multiplied in medium containing MS salts, 30 g/l sucrose, 0.25 mg/l benzyladenine (BAP) and 10 g/l agar (pH 6.0). To induce friable callus, leaf explants were incubated for 7-8 weeks in media having MS salts, 15 g/l sucrose, 2 mg/l BAP, and 8 g/l agar (pH 6.0).\nFor Agrobacterium-mediated transformation friable calli were mounted in media containing MS salts, 30 g/l sucrose, 1 mg/l GA3, 1 mg/l TDZ, and 10 g/l agar (pH 6.0) and kept for 1 week in the dark at 24° C. Agrobacterium harbouring the vector of IPR232-pS-01 (FIG. 12) was grown in medium containing 5 g/l tryptone, 2.5 g/l yeast extract, 1 g/l NaCl, 5 g/l mannitol, 0.1 g/l MgSO4×7H2O, 0.25 g/l KH2PO4, 1 g/l glutamic acid (pH 7.0) supplemented with the appropriate antibiotics, at 28° C., for 24 h. […]\nFor quantification of transformation rate a) the inducible BnBBM system based on DEX/GR as described above as well as a constitutive overexpression of BnBBM have been tested on an amenable genotype and a recalcitrant genotype. […]",
  "data": [
    {"smiles": "C[C@@H]1C[C@H]2[C@@H]3CCC4=CC(=O)C=C[C@]4(C)[C@@]3(F)[C@@H](O)C[C@]2(C)[C@@]1(O)C(=O)CO", "note": "[DEX, dexamethasone]", "values": [
      {"measurement": "transformation efficiency", "setting": "amenable genotype", "result": "around 70%"},
      {"measurement": "transformation efficiency", "setting": "recalcitrant genotype", "result": "around 18%"}
    ]}
  ]
}
